PMC5931576, “Allosteric modulation of the farnesoid X receptor by a small molecule” (Scientific Reports, 2018)
Like-named read-outs stand apart in the source and are kept apart here.

Key:
human FXR = molecular target: T1, human FXR (Homo sapiens, UniProt Q96RI1); assay: Full-length FXR transactivation (reporter gene) assay in HeLa cells; format: cell-based; details: for Emax: HeLa; for EC50: read-out: hFXR: EC50; for FXR modulatory potency in words: SAR discussion
T1 construct: expressed in transfected cells; host or cells: HeLa
T1 sequence (Q96RI1 1-486): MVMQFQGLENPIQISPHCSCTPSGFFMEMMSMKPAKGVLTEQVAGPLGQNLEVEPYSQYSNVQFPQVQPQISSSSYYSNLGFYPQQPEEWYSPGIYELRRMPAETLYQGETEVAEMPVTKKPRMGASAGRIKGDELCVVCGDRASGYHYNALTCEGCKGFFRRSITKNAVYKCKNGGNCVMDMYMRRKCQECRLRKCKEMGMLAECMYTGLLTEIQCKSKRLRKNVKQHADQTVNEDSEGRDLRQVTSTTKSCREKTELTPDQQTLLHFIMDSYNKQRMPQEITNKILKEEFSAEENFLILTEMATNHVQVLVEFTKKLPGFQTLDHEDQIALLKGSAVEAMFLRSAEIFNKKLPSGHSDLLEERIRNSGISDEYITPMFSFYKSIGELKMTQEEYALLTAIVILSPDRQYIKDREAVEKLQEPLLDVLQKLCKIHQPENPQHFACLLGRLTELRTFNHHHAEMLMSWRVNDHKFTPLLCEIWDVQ
T1 sequence (P19793 1-462 partner): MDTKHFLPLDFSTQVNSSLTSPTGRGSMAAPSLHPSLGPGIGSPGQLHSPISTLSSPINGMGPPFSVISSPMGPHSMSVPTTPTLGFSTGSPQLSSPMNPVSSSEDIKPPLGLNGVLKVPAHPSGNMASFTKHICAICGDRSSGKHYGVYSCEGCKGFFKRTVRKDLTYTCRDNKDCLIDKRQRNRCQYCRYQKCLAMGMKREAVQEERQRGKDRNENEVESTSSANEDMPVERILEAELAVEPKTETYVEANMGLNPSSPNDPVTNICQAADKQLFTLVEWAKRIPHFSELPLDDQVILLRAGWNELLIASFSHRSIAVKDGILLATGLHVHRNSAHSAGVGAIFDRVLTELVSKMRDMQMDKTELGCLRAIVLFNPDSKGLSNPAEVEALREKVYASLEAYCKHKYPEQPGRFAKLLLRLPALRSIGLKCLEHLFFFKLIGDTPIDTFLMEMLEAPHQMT

AMPKα2 = assay: Kinase inhibition assay (radiometric or HTRF); format: biochemical; details: 20 µM
RXRα = test system: T2, RXRα; assay: Gal4-DBD-RXRα-LBD hybrid reporter gene assay; format: cell-based, human
T2 construct: expressed in transfected cells; host or cells: HEK293T
Source text: The Gal4-fusion receptor plasmids pFA-CMV-hPPARα-LBD[34], pFA-CMV-hPPARγ-LBD[34], pFA-CMV-hPPARδ-LBD[34], pFA-CMV-hLXRα-LBD[35], pFA-CMV-hLXRβ-LBD[35], pFA-CMV-hRXRα-LBD[36], pFA-CMV-hRXRβ-LBD[36], pFA-CMV-hRXRγ-LBD[36], pFA-CMV-hRARα-LBD[36], pFA-CMV-hRARβ-LBD[36], pFA-CMV-hRARγ-LBD[36], pFA-CMV-hVDR-LBD[36] and pFA-CMV-hCAR-LBD[36] coding for the hinge region and ligand binding domain (LBD) of the canonical isoform of the respective nuclear receptor have been reported previously. pFR-Luc (Stratagene) was used as reporter plasmid and pRL-SV40 (Promega) for normalization of transfection efficiency and cell growth.
HEK293T cells were grown in DMEM high glucose, supplemented with 10% FCS, sodium pyruvate (1 mM), penicillin (100 U/mL) and streptomycin (100 μg/mL) at 37 °C and 5% CO2. The day before transfection, HEK293T cells were seeded in 96-well plates (2.5·10^4 cells/well). Before transfection, medium was changed to Opti-MEM without supplements. Transient transfection was carried out using Lipofectamine LTX reagent (Invitrogen) according to the manufacturer’s protocol with pFR-Luc (Stratagene), pRL-SV40 (Promega) and pFA-CMV-hNR-LBD. […] Luminescence was measured with an Infinite M200 luminometer (Tecan Deutschland GmbH) or a Tecan Spark 10 M luminometer (Tecan). […]

PDGF-Rα = assay: Kinase inhibition assay (radiometric or HTRF); format: biochemical
HepG2 cells = assay: WST-1 assay; format: cell-based; details: 48 h (or 24 h)
Protocol: (§1) In vitro biological evaluation […]
WST-1 assay (Roche Diagnostics International AG, Rotkreuz, Schweiz) was performed according to manufacturer’s protocol and as described previously. In brief, HepG2 cells were seeded in DMEM high glucose, supplemented with SP (1 mM), penicillin (100 U/mL), streptomycin (100 µg/mL) and 10% FCS in 96-well plates (3∙10^4 cells/well). After 24 h, medium was changed to DMEM high glucose, supplemented with penicillin (100 U/mL), streptomycin (100 µg/mL) and 1% charcoal stripped FCS and cells were incubated with 4 or 16 (final […]
and DMEM/1% DMSO as negative controls. After 48 h (or 24 h), WST reagent (Roche Diagnostics International AG) was added to each well according to manufacturer’s instructions. After 45 min incubation, absorption (450 nm/ reference: 620 nm) was determined with a Tecan Infinite M200 luminometer (Tecan Deutschland GmbH). Each experiment was repeated at least three times in triplicates. […]

AMPKα1 = assay: Kinase inhibition assay (radiometric or HTRF); format: biochemical; details: 20 µM
[1] = Metabolism assay (liver microsomes); format: in vitro ADME, Sprague−Dawley rats; details: rat liver microsomes, 10 μM
Protocol: as §1
MgCl2). After 5 min, the reaction was started by the addition of 13 μL of microsome mix from the liver of Sprague−Dawley rats (Invitrogen; 20 mg protein/mL in 0.1 M phosphate buffer) in a shaking water bath at 37 °C.
The reaction was stopped by addition of 250 μL of ice-cold methanol at 0, 15, 30 and 60 min. The samples were diluted with 250 μL of DMSO and centrifuged at 10000 g for 5 min at 4 °C. The supernatants were analyzed and test compound was quantified by HPLC: mobile phase: MeOH 83%/H2O 17%/formic acid 0.1%; flow-rate:
1 mL/min; stationary phase: MultoHigh Phenyl phase, 5 μm, 250 × 4, precolumn, phenyl, 5 μm, 20 × 4; detection wavelength: 330 and 254 nm; injection volume: 50 μL. Control samples were performed to check the stability of 4 or 16 in the reaction mixture: first control was without NADPH, which is needed for the enzymatic activity of the microsomes, second control was with inactivated microsomes (incubated for 20 min at 90 °C), third control was […]
quantified by an external calibration curve, where data are expressed as means ± SEM of single determinations […]
obtained in three independent experiments. […]
as mean percent of remaining compound ± SEM; n=3): 4: 0 min: 100 ± 0%, 15 min: 86 ± 3%, 30 min: 74 ± 1%,

PKA = test system: PKA; set-up: method as in doi:10.1016/S0960-894X(96)00601-4, PMID 11162439; details: cited from earlier work
TGR5 = test system: T3, TGR5; assay: TGR5 assay (Eurofins); format: cell-based; details: 1 and 10 µM
T3 construct: Eurofins (Brussels, Belgium)

TAK1 = assay: Kinase inhibition assay (radiometric or HTRF); format: biochemical; details: 20 µM
CaMKK2 = assay: Kinase inhibition assay (radiometric or HTRF); format: biochemical; details: 20 µM
c-Kit = assay: Kinase inhibition assay (radiometric or HTRF); format: biochemical
[2] = full-length reporter gene assay, HeLa cells, mean ± SEM, n ≥ 3
[3] = full-length reporter gene assay

## COc1ccc(C(=O)Nc2ccc(C)c(Nc3nccc(-c4cccnc4)n3)c2)cc1 [compound 15]
Human FXR; relative to FXR full agonist 3 at 3 µM, mean ± SEM, n ≥ 3, read-out: hFXR: max. rel. act. (converted)
  Emax: 8.4%
Human FXR; [2]
  EC50: 1000 ± 100 nM

## CCc1ccc(C(=O)Nc2ccc(C)c(Nc3nccc(-c4cccnc4)n3)c2)cc1.CS(=O)(=O)O.CS(=O)(=O)O.O [compound 12]
Human FXR; read-out: hFXR: max. rel. act.
  Emax: 7.9%
Human FXR; [2]
  EC50: 6.4 ± 0.4 nM
Human FXR; [3]
  FXR modulatory potency in words: single-digit nanomolar activity

## Cc1ccc(NC(=O)c2ccc(C(C)(C)C)cc2)cc1Nc1nccc(-c2cccnc2)n1 [compound 13]
Human FXR; read-out: hFXR: max. rel. act.
  Emax: 8.6%
Human FXR; [2]
  EC50: 580 ± 70 nM

## CS(=O)(=O)O.CS(=O)(=O)O.CS(=O)(=O)O.CS(=O)(=O)O.Cc1ccc(NC(=O)c2ccc3ccccc3c2)cc1Nc1nccc(-c2cccnc2)n1.Cc1ccc(NC(=O)c2ccc3ccccc3c2)cc1Nc1nccc(-c2cccnc2)n1.O.O.O [compound 9]
Human FXR; read-out: hFXR: max. rel. act.
  Emax: 7.1%
Human FXR; [2]
  EC50: 460 ± 10 nM
Human FXR; [3]
  FXR modulatory potency in words: submicromolar

## Cc1ccc(NC(=O)c2ccc(-c3ccccc3)cc2)cc1Nc1nccc(-c2cccnc2)n1 [compound 14]
Human FXR; read-out: hFXR: max. rel. act.
  Emax: 7.1%
Human FXR; [2]
  EC50: 130 ± 20 nM

## Cc1ccc(NC(=O)c2ccc(CN3CCN(C)CC3)cc2)cc1Nc1nccc(-c2cccnc2)n1 [compound 4, imatinib, reference compound]
AMPKα2
  Inhibition of AMPKα2: did not markedly inhibit
RXRα
  RXR agonistic activity (activation of RXRα-Gal4 chimera receptor): neither activated
PDGF-Rα
  Inhibition of PDGF-Rα: potent inhibitor
HepG2 cells; HepG2, 0.1 µM
  WST-1, mean percent of untreated control: 98 ± 9%
HepG2 cells; HepG2, 1 µM
  WST-1, mean percent of untreated control: 80 ± 9%
HepG2 cells; HepG2, 10 µM
  WST-1, mean percent of untreated control: 78 ± 3%
HepG2 cells; HepG2, 50 µM
  WST-1, mean percent of untreated control: 65 ± 1%
HepG2 cells; HepG2, 4 (10 µM) + 1 (50 µM)
  WST-1, mean percent of untreated control: 77 ± 7%
AMPKα1
  Inhibition of AMPKα1: did not markedly inhibit
[1]; 0 min
  mean percent of remaining compound: 100 ± 0%
[1]; 15 min
  mean percent of remaining compound: 86 ± 3%
[1]; 30 min
  mean percent of remaining compound: 74 ± 1%
[1]; 60 min
  mean percent of remaining compound: 61 ± 3%
PKA
  Activity on PKA: inactive
TGR5
  TGR5 modulation (agonistic or antagonistic activity): no agonistic or antagonistic activity
TAK1
  Inhibition of TAK1: slight inhibition
CaMKK2
  Inhibition of CaMKK2: slight inhibition
c-Kit
  Inhibition of c-Kit: potent inhibitor

## Cc1ccc(N)cc1Nc1nccc(-c2cccnc2)n1 [compound 17, reference compound]
Human FXR; read-out: hFXR: max. rel. act.
  Emax: 9.2%
Human FXR; [2]
  EC50: 17800 ± 1100 nM

## Cc1ccc(C(=O)Nc2ccc(C)c(Nc3nccc(-c4cccnc4)n3)c2)cc1 [compound 11]
Human FXR; read-out: hFXR: max. rel. act.
  Emax: 8.1%
Human FXR; [2]
  EC50: 51 ± 1 nM

## CS(=O)(=O)O.CS(=O)(=O)O.CS(=O)(=O)O.CS(=O)(=O)O.Cc1ccc(NC(=O)c2ccccc2)cc1Nc1nccc(-c2cccnc2)n1.Cc1ccc(NC(=O)c2ccccc2)cc1Nc1nccc(-c2cccnc2)n1.O [compound 8]
Human FXR; read-out: hFXR: max. rel. act.
  Emax: 9%
Human FXR; [2]
  EC50: 450 ± 20 nM
Human FXR; [3]
  FXR modulatory potency in words: submicromolar

## CC(=O)Nc1ccc(C)c(Nc2nccc(-c3cccnc3)n2)c1.CC(=O)Nc1ccc(C)c(Nc2nccc(-c3cccnc3)n2)c1.CS(=O)(=O)O.CS(=O)(=O)O.CS(=O)(=O)O.CS(=O)(=O)O.O [compound 7]
Human FXR; [2]
  hFXR: EC50: inactive

## C[C@H](CCC(=O)O)[C@H]1CC[C@H]2[C@@H]3[C@H](O)C[C@@H]4C[C@H](O)CC[C@]4(C)[C@H]3CC[C@]12C [compound 1, chenodeoxycholic acid, reference compound]
HepG2 cells; HepG2, 50 µM
  WST-1, mean percent of untreated control: 88 ± 5%

## Cc1ccc(NC(=O)c2ccncc2)cc1Nc1nccc(-c2cccnc2)n1 [compound 10]
Human FXR; read-out: hFXR: max. rel. act.
  Emax: 11.7%
Human FXR; [2]
  EC50: 3500 ± 200 nM
